Laboratory results: ChEMBL document CHEMBL6078612, “Novel strategies based on natural products and synthetic derivatives to overcome resistance in Mycobacterium tuberculosis” (Eur J Med Chem, 2024)
≈ marks a conversion by molar mass, not a printed value.

Tested on: Mycobacterium tuberculosis
Assay: Antimycobacterial activity against multi-drug resistant Mycobacterium tuberculosis
Format: functional

Row | Molecule | MIC [µg/mL]
1 | CC(=O)NC[C@H]1CN(c2ccc(N3CCOCC3)c(F)c2)C(=O)O1 [LINEZOLID] | 0.125 (≈ 0.371 µM)
2 | H-GWLDVAKKIGKAAFNVAKNFI-OH | < 0.98
